Test results taken from paper PMC10803265 (Nature Medicine, 2023).
Entries after “also recorded” stand apart in the source; their conditions may differ. Like-named read-outs stand apart in the source and are kept apart here.

Assays:
[1] = Divarasib plasma pharmacokinetics, non-compartmental analysis; type: in vivo, human; conditions: divarasib 400 mg QD in combination with cetuximab (250 mg/m^2 QW), n=21; C1D8 or C2D1 AUC0-24 / C1D1 AUC0-24; mean ± s.d.
Protocol: Pharmacokinetic parameters were estimated using non-compartmental analysis of concentration–time data. Plasma samples were evaluated for divarasib using a validated liquid chromatography tandem mass spectrometry assay. […] A stable labeled internal standard was used. Pharmacokinetic non-compartmental analysis was performed with nominal time using Phoenix WinNonlin (Certara USA, version 8.3). Graphical visualization was done using R (version 4.2.0; R Foundation for Statistical Computing). Pharmacokinetic samples at steady state were collected before dose, and at 0.5, 1, 2, 3, 4 and 8 h after dose on cycle 1 day 8 (C1D8) or on cycle 2 day 1 (C2D1).

[2] = test system: patients with KRAS G12C-positive CRC
Protocol: Preliminary antitumor activity was determined by the investigator according to RECIST v1.1. […] PFS was defined as the time from first treatment to the first occurrence of disease progression or death from any cause during the study (whichever occurred first).

[3] = cited from earlier work
KRAS G12C [4] = conditions: single-agent divarasib; patients with detectable KRAS G12C ctDNA at C1D1; cited from earlier work
KRAS G12C [5] = test system: KRAS G12C; parameters: method as in earlier work; conditions: in vitro; cited from earlier work
[6] = test system: non-small cell lung cancer; conditions: cited from earlier work
[7] = test system: pERK, pS6, DUSP6, SPRY4 in KRAS G12C-positive cancer cell lines; parameters: method as in GDC-6036 Investigator's Brochure; conditions: ref GDC-6036 Investigator's Brochure; cited from earlier work
[8] = test system: xenograft models of KRAS G12C-positive lung tumors; parameters: method as in GDC-6036 Investigator's Brochure; conditions: nonclinical xenograft models of KRAS G12C-positive lung tumors; ref GDC-6036 Investigator's Brochure; cited from earlier work
cynomolgus monkeys = test system: cynomolgus monkeys; parameters: method as in GDC-6036 Investigator's Brochure; conditions: ref GDC-6036 Investigator's Brochure, cited from earlier work
mice = test system: mice; parameters: method as in GDC-6036 Investigator's Brochure; conditions: gavage, attributed to chemical irritation by the higher concentration drug formulation, ref GDC-6036 Investigator's Brochure; cited from earlier work
CYP3A4 = test system: CYP3A4; parameters: method as in GDC-6036 Investigator's Brochure; conditions: human hepatocyte culture; ref GDC-6036 Investigator's Brochure; cited from earlier work
P-gp = test system: P-gp; parameters: method as in GDC-6036 Investigator's Brochure; conditions: in vitro; ref GDC-6036 Investigator's Brochure; cited from earlier work
BCRP = test system: BCRP; parameters: method as in GDC-6036 Investigator's Brochure; conditions: in vitro; ref GDC-6036 Investigator's Brochure; cited from earlier work
KRAS G12C-positive CRC = conditions: single-agent divarasib at 400 mg, patients with CRC; cited from earlier work
patients = conditions: cited from earlier work
[9] = in combination with cetuximab, 29 patients
[10] = divarasib 400 mg QD single agent, multiple doses (C1D8 or C2D1), N 76, mean ± s.d.
[11] = single-agent divarasib at 400 mg
[12] = AMG 510 all events, n=129, MRTX849 related only, n=17, ref Janne et al. 2019, Hong et al. 2020
[13] = Phase I trial, one patient, ref Hong et al. 2020

C=CC(=O)N1CCN(c2nc(OC[C@@H]3CCCN3C)nc3c(F)c(-c4nc(N)cc(C)c4C(F)(F)F)c(Cl)cc23)[C@@H](C)C1 [divarasib]
RAUC0-24 [1]: 1.2 ± 0.4 fold
diarrhea leading to divarasib dose reduction, patients ([2]; all grade 3): 10.3%
vomiting leading to divarasib dose reduction, patients ([2]; grade 1): 3.4%
TRAEs leading to divarasib dose interruptions, patients [2, 9]: 24.1%
TRAEs leading to divarasib dose modifications (interruption, reduction or withdrawal), patients [2, 9]: 34.5%
TRAEs leading to divarasib treatment withdrawals [2, 9]: no divarasib treatment withdrawals; also recorded: No patients withdrew
AUC0-24 [3, 10]: 9130 ± 3160 ng·h/mL
Cmax [3, 10]: 657 ± 185 ng/mL
tmax ([3]; divarasib 400 mg QD single agent, multiple doses (C1D8 or C2D1), N 76, median (range)): 2.0 (0.5-8.0) hr
RAUC0-24 ([3]; divarasib 400 mg QD single agent, n=63, mean ± s.d.): 1.4 ± 0.4 fold
mean half-life ([3]; single dose of divarasib 400 mg as a single agent): 17.6 ± 2.7 h
patients with KRAS G12C VAF decline to below 0.5% at C3D1 (KRAS G12C [4]): 45.7%
potency compared to sotorasib and adagrasib (KRAS G12C [5]): 5 to 20 times
confirmed ORR [6, 11]: 56.4%
median PFS [6, 11]: 13.1 months
downstream MAPK pathway components (pERK, pS6) and KRAS target genes (DUSP6, SPRY4) [7]: inhibited
single-agent activity on tumor growth [8]: inhibits tumor growth
clinical signs (cynomolgus monkeys; 4-week toxicology studies in cynomolgus monkeys): gastrointestinal intolerance with retching and vomiting
hepatic transaminases (cynomolgus monkeys; cynomolgus monkeys): minimal to mild transaminase elevation
microscopic findings (mice): laryngeal necrosis
CYP3A4 mRNA induction (CYP3A4): induce messenger RNA (mRNA)
CYP3A4 protein levels induction (CYP3A4): not protein levels
P-gp transporter inhibition (P-gp): inhibit
BCRP transporter inhibition (BCRP): inhibit
confirmed ORR (KRAS G12C-positive CRC): 35.9%
median PFS (KRAS G12C-positive CRC): 6.9 months

C=CC(=O)N1CCN(c2nc(=O)n(-c3c(C)ccnc3C(C)C)c3nc(-c4c(O)cccc4F)c(F)cc23)[C@@H](C)C1 [sotorasib]
ORR ([6]; phase 2 trial): 37%
ORR ([6]; phase 3 trial): 28%
all grade adverse events: diarrhea (patients; [12]): 29.5%
all grade adverse events: nausea (patients; [12]): 20.9%
all grade adverse events: vomiting (patients; [12]): 17.8%
Grade 3 treatment-related increased AST, patients (patients; Phase I trial, 3 out of 129, ref Hong et al. 2020): 2.3%
Grade 3 treatment-related increased ALT, patients (patients; Phase I trial, 6 out of 129, ref Hong et al. 2020): 4.7%
any grade increased ALT, patients (patients; Phase I trial, 15 out of 129, ref Hong et al. 2020): 11.6%
any grade increased AST, patients (patients; Phase I trial, 17 out of 129, ref Hong et al. 2020): 13.2%
Grade 4 treatment-related elevation of ALT, patients (patients; [13]): 0.8%
discontinued treatment because of Grade 3 treatment-related increase in ALT and AST levels, patients (patients; [13]): 0.8%
